Experimental data taken from paper doi:10.1101/2021.07.09.451751v1, “Identification of general acid catalyst for the ATPase activity of Lynch syndrome-related MutL homologs” (biorxiv, 2021).
Substitutions are numbered along the chain they refer to.

Assays:
aqMutL NTD [1] = target: T1, aqMutL NTD (Aquifex aeolicus, UniProt O67518); assay: equilibrium dialysis; type: binding
T1 construct: gene mutL; recombinant from E. coli
T1 sequence (O67518 1-319 limits assumed): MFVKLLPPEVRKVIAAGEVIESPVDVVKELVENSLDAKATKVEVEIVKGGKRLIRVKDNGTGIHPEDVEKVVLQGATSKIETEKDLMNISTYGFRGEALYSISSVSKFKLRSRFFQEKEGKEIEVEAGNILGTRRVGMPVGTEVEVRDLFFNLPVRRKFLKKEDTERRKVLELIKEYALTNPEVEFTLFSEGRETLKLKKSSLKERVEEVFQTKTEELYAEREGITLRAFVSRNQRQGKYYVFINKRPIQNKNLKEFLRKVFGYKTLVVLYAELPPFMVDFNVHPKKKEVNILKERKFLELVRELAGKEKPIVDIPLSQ

aqMutL NTD [2] = target: T2, aqMutL NTD (Aquifex aeolicus, UniProt O67518, K79A); assay: equilibrium dialysis; type: binding
T2 construct: gene mutL; recombinant from E. coli
T2 sequence (O67518 1-319 K79A limits assumed): T1 sequence (O67518 1-319 limits assumed) with K79A

Nc1ncnc2c1ncn2[C@@H]1O[C@H](COP(=O)(O)OP(=O)(O)NP(=O)(O)O)[C@@H](O)[C@H]1O [AMPPNP]
Kd (aqMutL NTD [1]): 300 µM
Kd (aqMutL NTD [2]): 340 µM
